In the assay the target is T1, Androgen Receptor (Homo sapiens, UniProt P10275).
T1 construct: endogenous in cells; host or cells: VCaP cells
T1 sequence (P10275 1-920): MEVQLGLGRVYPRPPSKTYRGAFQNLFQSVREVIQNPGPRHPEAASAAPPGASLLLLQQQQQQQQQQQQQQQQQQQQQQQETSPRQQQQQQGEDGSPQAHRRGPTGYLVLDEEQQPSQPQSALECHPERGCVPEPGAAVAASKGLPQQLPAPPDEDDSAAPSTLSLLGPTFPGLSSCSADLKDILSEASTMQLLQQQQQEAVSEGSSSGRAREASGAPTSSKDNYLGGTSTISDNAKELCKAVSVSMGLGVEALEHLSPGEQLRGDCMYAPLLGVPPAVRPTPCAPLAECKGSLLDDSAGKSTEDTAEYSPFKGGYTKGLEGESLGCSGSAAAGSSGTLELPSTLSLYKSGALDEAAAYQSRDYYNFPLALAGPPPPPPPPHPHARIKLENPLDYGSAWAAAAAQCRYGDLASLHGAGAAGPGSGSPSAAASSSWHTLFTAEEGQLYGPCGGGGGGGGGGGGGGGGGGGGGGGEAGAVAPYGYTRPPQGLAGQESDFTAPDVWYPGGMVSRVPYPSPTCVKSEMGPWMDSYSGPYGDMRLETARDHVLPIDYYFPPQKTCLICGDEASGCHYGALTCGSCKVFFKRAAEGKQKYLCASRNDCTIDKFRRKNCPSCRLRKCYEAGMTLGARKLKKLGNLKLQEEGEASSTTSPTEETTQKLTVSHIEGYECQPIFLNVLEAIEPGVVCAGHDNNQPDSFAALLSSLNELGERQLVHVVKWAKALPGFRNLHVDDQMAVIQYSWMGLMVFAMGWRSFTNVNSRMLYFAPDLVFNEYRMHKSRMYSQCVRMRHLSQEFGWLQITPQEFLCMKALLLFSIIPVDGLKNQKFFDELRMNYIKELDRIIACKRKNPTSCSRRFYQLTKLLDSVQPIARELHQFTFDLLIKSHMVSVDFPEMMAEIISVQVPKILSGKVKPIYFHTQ
Description: Androgen Receptor ELISA assay (PathScan AR ELISA) in VCaP cells: AR degradation, Dmax and DC50. It counts as cell-based. The method in brief:
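After 24 h exposure of VCaP cells (charcoal-stripped serum, 0.1 nM R1881 agonist, 0.1% DMSO) to seven half-log compound concentrations, residual AR in lysates was measured by PathScan ELISA (TMB absorbance, 450 nm). Cells were plated at 30,000/well and grown at least 3 days beforehand.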
Background: An ELISA detects its analyte on a solid surface through an enzyme-linked reagent.

[1] abbreviates: VCaP cells; Table 36; read-out: VCaP DC50.
[2] abbreviates: VCaP, VCaP cells; Table 36; read-out: VCaP Dmax (%).
The mark [3] stands for this setting: VCaP, read-out: VCaP Dmax (%), VCaP cells; Table 36.

Where two headings read alike, the source gives them in different places. A value given as a limit tells only on which side of the number the result lay.

The DC50 is the concentration at which degradation of the target reaches its halfway point. The Dmax is the largest share of the target that was removed.

Take `Cc1ncsc1-c1ccc([C@H](C)NC(=O)[C@@H]2C[C@@H](O)CN2C(=O)[C@@H](NC(=O)CCCCC(CCCc2ccc(C(=O)N[C@H]3C(C)(C)[C@H](Oc4ccc(C#N)c(Cl)c4)C3(C)C)nc2)N2CCN(C)CC2)C(C)(C)C)cc1` (stereo partly drawn) [Example 687, N-((1R,3R)-3-(3-chloro-4-cyanophenoxy)-2,2,4,4-tetramethylcyclobutyl)-5-(9-(((S)-1-((2S,4R)-4-hydroxy-2-(((S)-1-(4-(4-methylthiazol-5-yl)phenyl)ethyl)carbam-oyl)pyrrolidin-1-yl)-3,3-dimethyl-1-oxobutan-2-yl)amino)-4-(4-methylpiperazin-1-yl)-9-oxononyl)picolinamide]: the DC50 under setting [1] is 51 to 500 nM. Further, the Dmax under setting [2] was 26 to 50%.

Regarding `Cc1ncsc1-c1ccc([C@H](C)NC(=O)C2C[C@@H](O)CN2C(=O)C(NC(=O)COCC(F)(F)C(F)(F)C(F)(F)COc2ccc(C(=O)N[C@H]3C(C)(C)[C@H](Oc4ccc(C#N)c(Cl)c4)C3(C)C)cc2)C(C)(C)C)cc1` (stereo partly drawn) [Example 688, (2S,4R)-1-((S)-2-(2-((5-(4-(((1r,3r)-3-(3-chloro-4-cyanophenoxy)-2,2,4,4-tetramethylcyclobutyl)carbamoyl)phenoxy)-2,2,3,3,4,4-hexafluoropentyl)oxy)acetamido)-3,3-diemthylbutanoyl)-4-hydroxy-N-((S)-1-(4-(4-methylthiazol-5-yl)phenyl)ethyl)pyrrolidine-2-carboxamide], where the note is “VCaP, read-out: VCaP Dmax (%)”, the Dmax is above 71%. In addition, the DC50 (read-out: VCaP DC50; VCaP cells; Table 36) is below 50 nM.

Regarding `Cc1ncsc1-c1ccc([C@H](C)NC(=O)[C@@H]2C[C@@H](O)CN2C(=O)[C@@H](NC(=O)COCCN2CCN(c3cnc(C(=O)N[C@H]4C(C)(C)[C@H](Oc5ccc(C#N)c(C(F)(F)F)c5)C4(C)C)cn3)CC2)C(C)(C)C)cc1` [Example 689, N-((1r,3r)-3-(4-cyano-3-(trifluoromethyl)phenoxy)-2,2,4,4-tetramethylcyclobutyl)-5-(4-(2-(2-(((S)-1-((2S,4R)-4-hydroxy-2-(((S)-1-(4-(4-methylthiazol-5-yl)phenyl)ethyl)carbam-oyl)pyrrolidin-1-yl)-3,3-dimethyl-1-oxobutan-2-yl)amino)-2-oxoethoxy)ethyl)pipera-zin-1-yl)pyrazine-2-carboxamide], the half-maximal degradation concentration (DC50) under setting [1] was below 50 nM. In addition, the Dmax under setting [2] was above 71%.

As to `Cc1ncsc1-c1ccc([C@H](C)NC(=O)[C@@H]2C[C@@H](O)CN2C(=O)[C@@H](NC(=O)CN2CCC(O[C@H]3C[C@H](Nc4ccc(C(=O)N[C@H]5C(C)(C)[C@H](Oc6ccc(C#N)c(Cl)c6)C5(C)C)cn4)C3)CC2)C(C)(C)C)cc1` [Example 690, N-((1r,3R)-3-(3-chloro-4-cyanophenoxy)-2,2,4,4-tetramethylcyclobutyl)-6-(((1S,3R)-3-((1-(2-(((S)-1-((2S,4R)-4-hydroxy-2-(((S)-1-(4-(4-methylthiazol-5-yl)phenyl)ethyl)carbam-oyl)pyrrolidin-1-yl)-3,3-dimethyl-1-oxobutan-2-yl)amino)-2-oxoethyl)piperidin-4-yl)oxy)cyclobutyl)amino) nicotinamide], the DC50 under setting [1] is below 50 nM. For the same molecule, for the setting “VCaP, read-out: VCaP Dmax (%)”, the greatest degradation seen (Dmax) was above 71%.

Take `Cc1ncsc1-c1ccc([C@H](C)NC(=O)[C@@H]2C[C@@H](O)CN2C(=O)[C@@H](c2ncc(CCCCCNc3ccc(C(=O)N[C@H]4C(C)(C)[C@H](Oc5ccc(C#N)c(Cl)c5)C4(C)C)nc3)n2C)C(C)C)cc1` [Example 691, N-((1r,3r)-3-(3-chloro-4-cyanophenoxy)-2,2,4,4-tetramethylcyclobutyl)-5-((5-(2-((R)-1-((2S,4R)-4-hydroxy-2-(((S)-1-(4-(4-methylthiazol-5-yl)phenyl)ethyl)carbam-oyl)pyrrolidin-1-yl)-3-methyl-1-oxobutan-2-yl)-1-methyl-1H-imidazol-5-yl)pentyl)amino)picolin-amide]: the DC50 under setting [1] was above 501 nM. Besides, under setting [2], the Dmax was below 25%.

For the molecule `Cc1ncsc1-c1ccc([C@H](C)NC(=O)[C@@H]2C[C@@H](O)CN2C(=O)[C@H](c2ncc(CCCCCNc3ccc(C(=O)N[C@H]4C(C)(C)[C@H](Oc5ccc(C#N)c(Cl)c5)C4(C)C)nc3)n2C)C(C)C)cc1` [Example 692, N-((1r,3r)-3-(3-chloro-4-cyanophenoxy)-2,2,4,4-tetramethylcyclobutyl)-5-((5-(2-((S)-1-((2S,4R)-4-hydroxy-2-(((S)-1-(4-(4-methylthiazol-5-yl)phenyl)ethyl)carbam-oyl)pyrrolidin-1-yl)-3-methyl-1-oxobutan-2-yl)-1-methyl-1H-imidazol-5-yl)pentyl)amino)picolin-amide], the DC50 under setting [1] is above 501 nM. Also, under setting [2], the Dmax is below 25%.

With `Cc1ncsc1-c1ccc([C@H](C)NC(=O)[C@@H]2C[C@@H](O)CN2C(=O)[C@@H](NC(=O)CCCC/C(CCCc2ccc(C(=O)N[C@H]3C(C)(C)[C@H](Oc4ccc(C#N)c(Cl)c4)C3(C)C)nc2)=N\O)C(C)(C)C)cc1` [Example 693, N-((1r,3r)-3-(3-chloro-4-cyanophenoxy)-2,2,4,4-tetramethylcyclobutyl)-5-((E)-9-(((S)-1-((2S,4R)-4-hydroxy-2-(((S)-1-(4-(4-methylthiazol-5-yl)phenyl)ethyl)carbam-oyl)pyrrolidin-1-yl)-3,3-dimethyl-1-oxobutan-2-yl)amino)-4-(hydroxyimino)-9-oxononyl)picolinamide], the DC50 under setting [1] is below 50 nM. For the same molecule, under setting [2], the Dmax lay within 26 to 50%.

On to `Cc1ncsc1-c1ccc(C(C)NC(=O)C2CC(O)CN2C(=O)C(NC(=O)CN2CCOCCOCCN(c3ccc(C(=O)NC4C(C)(C)C(Oc5ccc(C#N)c(Cl)c5)C4(C)C)cc3)CCOCCOCC2)C(C)(C)C)cc1` [Example 694, (2S,4R)-1-((S)-2-(2-(16-(4-(((1r,3r)-3-(3-chloro-4-cyanophenoxy)-2,2,4,4-tetramethylcyclobutyl)carbamoyl)phenyl)-1,4,10,13-tetraoxa-7,16-diazacyclooctadecan-7-yl)acetamido)-3,3-dimethylbutanoyl)-4-hydroxy-N-((S)-1-(4-(4-methylthiazol-5-yl)phenyl)ethyl)pyrrolidine-2-carboxamide], for which the 50% degradation concentration (DC50) under setting [1] was below 50 nM. Besides, under setting [3], the Dmax was 51 to 70%.

As to `CCO/N=C(\CCCCC(=O)N[C@H](C(=O)N1C[C@H](O)C[C@H]1C(=O)N[C@@H](C)c1ccc(-c2scnc2C)cc1)C(C)(C)C)CCCc1ccc(C(=O)N[C@H]2C(C)(C)[C@H](Oc3ccc(C#N)c(Cl)c3)C2(C)C)nc1` [Example 695, N-((1r,3r)-3-(3-chloro-4-cyanophenoxy)-2,2,4,4-tetramethylcyclobutyl)-5-((E)-4-(ethoxyimino)-9-(((S)-1-((2S,4R)-4-hydroxy-2-(((S)-1-(4-(4-methylthiazol-5-yl)phenyl)ethyl)carbam-oyl)pyrrolidin-1-yl)-3,3-dimethyl-1-oxobutan-2-yl)amino)-9-oxononyl)picolinamide], the DC50 under setting [1] was in the range of 51 to 500 nM. Under setting [2], the Dmax lay within 51 to 70%.

Consider `CC(C)[C@H](C(=O)N1C[C@H](O)C[C@H]1C(=O)N[C@@H](C)c1ccc(C#N)cc1)c1cc(OCCN2CCN(c3ccc(C(=O)N[C@H]4C(C)(C)[C@H](Oc5ccc(C#N)c(Cl)c5)C4(C)C)cn3)CC2)no1` [Example 696, N-((1r,3r)-3-(3-chloro-4-cyanophenoxy)-2,2,4,4-tetramethylcyclobutyl)-6-(4-(2-((5-((S)-1-((2S,4R)-2-(((S)-1-(4-cyanophenyl)ethyl)carb-amoyl)-4-hydroxypyrrolidin-1-yl)-3-methyl-1-oxobutan-2-yl)isoxazol-3-yl)oxy)ethyl)piperazin-1-yl)nicotinamide], for which the DC50 under setting [1] is below 50 nM. In addition, under setting [3], the maximal degradation (Dmax) is below 25%.

With `CC(NC(=O)C1CC(O)CN1C(=O)C(c1cc(OCCN2CCN(c3ccc(C(=O)NC4C(C)(C)C(Oc5ccc(C#N)c(Cl)c5)C4(C)C)cn3)CC2)no1)C(C)C)c1ccc(C#N)cc1` [Example 697, N-((1r,3r)-3-(3-chloro-4-cyanophenoxy)-2,2,4,4-tetramethylcyclobutyl)-6-(4-(2-((5-((R)-1-((2S,4R)-2-(((S)-1-(4-cyanophenyl)ethyl)carb-amoyl)-4-hydroxypyrrolidin-1-yl)-3-methyl-1-oxobutan-2-yl)isoxazol-3-yl)oxy)ethyl)piperazin-1-yl)nicotinamide], the DC50 under setting [1] is below 50 nM. The Dmax under setting [3] is 26 to 50%.

The values above are taken from patent US11427548B2 (Arvinas Operations, Inc., priority 2015, dated 2022).
